Data on 11 molecules can be found in ChEMBL document CHEMBL1201862, “PubChem BioAssay data set” (2004).

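Briefly, cells in 96-well plates were exposed to five compound concentrations for 48 h, and endpoints were estimated by linear interpolation. The concentration for 50% growth inhibition is given as GI50.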 Activity calls are given as the source filed them. Cut-off read from the data, not from the text of the source: active = GI50 up to about 1.1 µM and inactive = higher.

Some test systems named below: HOP-62; CAKI-1; SF-295; SN12C; U-251; HOP-92; SK-MEL-5; HT-29; SF-268; Malme-3M; OVCAR-5; TK-10; MDA-N; OVCAR-3; OVCAR-8; M14; CCRF-CEM; HL-60; NCI-H460; SR.
Holding throughout (test): NCI anticancer screen, dose series, 48 h

`OC12COc3ccccc3C1Oc1ccccc1C2` (stereo unspecified): the GI50 with HOP-62, with CAKI-1, in the assay on SF-295, in the assay with SN12C, in the assay with U-251 and in the assay with HOP-92 was > 100 µM (inactive) throughout. Further, the GI50 in the assay with SK-MEL-5, in the assay with HT-29, with SF-268, with Malme-3M, in the assay with OVCAR-5 and in the assay on TK-10 was > 100 µM (inactive) throughout. The GI50 in the assay with MDA-N, in the assay with OVCAR-3, in the assay with OVCAR-8, in the assay on M14 and in the assay with CCRF-CEM was > 100 µM (inactive) each time.

For `O=C1CCCc2cc3c(cc21)CC1(Cc2ccccc2C1)C3`, the GI50 in the assay on HOP-62 is 6.04 µM (inactive); in the assay with SF-295, 4.03 µM (inactive); with SN12C it was 4.52 µM (inactive); in the assay with U-251, 5.38 µM (inactive); in the assay on HL-60, 1.84 µM (inactive); in the assay on HOP-92, 10.8 µM (inactive). Moreover, the GI50 in the assay on SK-MEL-5 is 4.89 µM (inactive); with HT-29, 2.8 µM (inactive); in the assay with Malme-3M, 9.79 µM (inactive); in the assay on OVCAR-5 it was 7.66 µM (inactive); with TK-10, 7.16 µM (inactive); in the assay on MDA-N, 1.42 µM (inactive). For the same molecule, the results for the GI50 in the assay with OVCAR-3, with OVCAR-8 and in the assay with M14 were 2.56 µM (inactive), 6.28 µM (inactive) and 4.33 µM (inactive), respectively.

As for `Cc1ccc(S(=O)(=O)N2CCSCCN(S(=O)(=O)c3ccc(C)cc3)CCN(S(=O)(=O)c3ccc(C)cc3)CC2)cc1`, the GI50 in the assay on NCI-H460 is > 100 µM (inactive); in the assay with HOP-62, 20.7 µM (inactive); with SF-295, 26.4 µM (inactive); in the assay on SN12C, > 100 µM (inactive); with U-251, 20 µM (inactive); with HL-60, > 100 µM (inactive). The GI50 in the assay on HOP-92 was 0.184 µM (active); in the assay with SK-MEL-5, > 100 µM (inactive); in the assay with HT-29, > 100 µM (inactive); in the assay on SF-268, 16.7 µM (inactive); in the assay with OVCAR-5, > 100 µM (inactive); in the assay on MDA-N, > 100 µM (inactive). Besides, the GI50 with OVCAR-3 is > 100 µM (inactive); in the assay with OVCAR-8, 37.8 µM (inactive); with M14, > 100 µM (inactive); with CCRF-CEM, > 100 µM (inactive).

Turning to `CS/C(c1ccccc1)=[N+](/C)[O-]`, the GI50 with NCI-H460 was > 52.2 µM (inactive); in the assay with HOP-62, > 100 µM (inactive); in the assay on CAKI-1 it was > 100 µM (inactive); in the assay on SF-295, > 100 µM (inactive); in the assay on SN12C, > 100 µM (inactive); in the assay with U-251 it was > 100 µM (inactive). The GI50 in the assay with HL-60 is > 100 µM (inactive); in the assay with HOP-92, > 100 µM (inactive); with SK-MEL-5 it was > 100 µM (inactive); in the assay on HT-29, > 75.9 µM (inactive); in the assay on SF-268 it was > 100 µM (inactive); in the assay on Malme-3M, > 100 µM (inactive). Besides, the GI50 in the assay on OVCAR-5 was > 100 µM (inactive); in the assay with TK-10, > 100 µM (inactive); in the assay on SR, 24.2 µM (inactive); in the assay on OVCAR-3, > 100 µM (inactive); in the assay with OVCAR-8, > 100 µM (inactive); in the assay on M14 it was > 100 µM (inactive). For the same molecule, the GI50 with CCRF-CEM is > 51.2 µM (inactive).

With `c1ccc(C2OC3(CCC[C@H]4C[C@H]43)O[C@H]2c2ccccc2)cc1` (stereo partly specified), the GI50 in the assay on NCI-H460 is 39.8 µM (inactive); in the assay on HOP-62, 56.1 µM (inactive); in the assay on CAKI-1, 29.6 µM (inactive); in the assay with SF-295, 46.3 µM (inactive); in the assay with SN12C, 34.4 µM (inactive); in the assay with U-251, 41.1 µM (inactive). For the same molecule, the GI50 with HL-60 is 19.8 µM (inactive); in the assay with HOP-92, 27.3 µM (inactive); with SK-MEL-5, 25.3 µM (inactive); in the assay on HT-29, 31.3 µM (inactive); in the assay on SF-268, 73.8 µM (inactive); in the assay with Malme-3M, 34.5 µM (inactive). The GI50 with OVCAR-5 is 60.8 µM (inactive); in the assay with TK-10, > 100 µM (inactive); in the assay on SR, 27.2 µM (inactive); with OVCAR-3, 37.4 µM (inactive); with OVCAR-8, 48 µM (inactive); in the assay on M14, 43.9 µM (inactive). In addition, in the assay on CCRF-CEM, the GI50 was 22.2 µM (inactive).

Take `CC1(C)CC2=C(Sc3ccccc3N2)C(=O)C1C(=O)C(=O)Nc1cccc([N+](=O)[O-])c1` (stereo unspecified): the GI50 in the assay on NCI-H460, with CAKI-1, in the assay on SF-295, in the assay with SN12C, with U-251 and with HL-60 was > 100 µM (inactive) in each case. Besides, the GI50 in the assay on HOP-92, in the assay on SK-MEL-5, in the assay on HT-29, with SF-268, in the assay with Malme-3M and in the assay with OVCAR-5 was > 100 µM (inactive) each time. Moreover, the GI50 in the assay on TK-10 was > 100 µM (inactive); with MDA-N, > 100 µM (inactive); with OVCAR-3, 85.5 µM (inactive); with OVCAR-8, > 100 µM (inactive); in the assay with M14 it was > 100 µM (inactive); with CCRF-CEM, 0.0738 µM (active).

For the molecule `COC(=O)[C@H](Cc1ccccc1)NC(=O)N(CCC#N)CCCCN(CCC#N)C(=O)N[C@@H](Cc1ccccc1)C(=O)OC`, the GI50 in the assay on NCI-H460 was > 81.8 µM (inactive); in the assay on HOP-62 it was > 100 µM (inactive); with CAKI-1, > 100 µM (inactive); in the assay with SF-295, > 100 µM (inactive); in the assay on SN12C, > 100 µM (inactive); with U-251 it was > 100 µM (inactive). The GI50 in the assay on HOP-92, in the assay on SK-MEL-5, with SF-268, in the assay with Malme-3M, in the assay with OVCAR-5 and in the assay with TK-10 was > 100 µM (inactive) in each case. In addition, the GI50 with MDA-N, with OVCAR-3, in the assay on OVCAR-8 and with M14 was > 100 µM (inactive) throughout.

As for `CC1C=CC(O)[C@]2(CO)CC3(CCC12)OCCO3` (stereo partly specified), the GI50 in the assay on NCI-H460, in the assay with HOP-62, in the assay with CAKI-1, in the assay on SF-295, with SN12C and in the assay with U-251 was > 100 µM (inactive) in each case. Further, the GI50 with HL-60, with HOP-92, in the assay on SK-MEL-5, in the assay on HT-29, in the assay on SF-268 and in the assay with Malme-3M was > 100 µM (inactive) throughout. The GI50 in the assay on OVCAR-5, in the assay on TK-10, in the assay on SR, in the assay on OVCAR-3, in the assay on OVCAR-8 and with M14 was > 100 µM (inactive) throughout. Also, the GI50 in the assay with CCRF-CEM was > 100 µM (inactive).

On to `Cc1cc(C)c2c(c1)N[S@@](=O)S2`, for which the GI50 in the assay on NCI-H460 is 21.8 µM (inactive); in the assay on HOP-62, 57.9 µM (inactive); with CAKI-1, 25.2 µM (inactive); in the assay on SF-295, 39.7 µM (inactive); in the assay with SN12C, 19.4 µM (inactive); with U-251, 16.8 µM (inactive). For the same molecule, the GI50 with HL-60 is 26.4 µM (inactive); in the assay on HOP-92 it was 45.8 µM (inactive); with SK-MEL-5, 29.9 µM (inactive); in the assay with HT-29, 20.2 µM (inactive); in the assay on SF-268 it was 17.9 µM (inactive); in the assay with Malme-3M, 25.2 µM (inactive). In addition, the GI50 is 30.6 µM (inactive) with OVCAR-5; 30.4 µM (inactive) in the assay with TK-10; 36.2 µM (inactive) with SR; 18.3 µM (inactive) in the assay with OVCAR-3; 17.7 µM (inactive) in the assay with OVCAR-8; 17 µM (inactive) in the assay on M14. Moreover, in the assay with CCRF-CEM, the GI50 was 21.9 µM (inactive).

For `CCOC(=O)N1C2C=C(C)C(C3C(C)C(=O)N31)N(C(=O)c1ccccc1)O2` (stereo unspecified), the GI50 with NCI-H460, in the assay on HOP-62, with CAKI-1, in the assay with SF-295, with SN12C and in the assay on U-251 was > 100 µM (inactive) in each case. Further, the GI50 with HL-60, in the assay on HOP-92, in the assay on SK-MEL-5, with HT-29, in the assay with SF-268 and with Malme-3M was > 100 µM (inactive) in each case. In addition, the GI50 in the assay with OVCAR-5, in the assay on TK-10, in the assay with SR, with OVCAR-3, with OVCAR-8 and with M14 was > 100 µM (inactive) each time. The GI50 in the assay on CCRF-CEM was > 100 µM (inactive).

As for `NC(CNc1ccc(O)cc1)C(=O)O` (stereo unspecified), the GI50 with NCI-H460 was > 100 µM (inactive); in the assay on HOP-62, > 100 µM (inactive); in the assay with CAKI-1, 81.8 µM (inactive); in the assay with SF-295, > 100 µM (inactive); with SN12C, > 100 µM (inactive); in the assay with U-251, > 100 µM (inactive). Further, the GI50 with HL-60 was 31.5 µM (inactive); in the assay with HOP-92, > 100 µM (inactive); in the assay with SK-MEL-5, > 100 µM (inactive); with HT-29, > 100 µM (inactive); with SF-268, > 100 µM (inactive); in the assay with Malme-3M it was > 100 µM (inactive). In addition, the GI50 in the assay with OVCAR-5 is > 100 µM (inactive); with TK-10 it was > 100 µM (inactive); in the assay with SR, 87.9 µM (inactive); with OVCAR-3 it was > 100 µM (inactive); in the assay with OVCAR-8, > 100 µM (inactive); in the assay on M14 it was 80.7 µM (inactive). The GI50 with CCRF-CEM is 33.6 µM (inactive).
